Assays:
Format in all cases: biochemical
FXIIa = molecular target: T1, FXIIa (Homo sapiens, UniProt P00748); assay: Determination of Factor XIIa inhibition, chromogenic substrate S-2302 assay; details: human FXIIa alpha
T1 sequence (P00748 373-615 limits assumed): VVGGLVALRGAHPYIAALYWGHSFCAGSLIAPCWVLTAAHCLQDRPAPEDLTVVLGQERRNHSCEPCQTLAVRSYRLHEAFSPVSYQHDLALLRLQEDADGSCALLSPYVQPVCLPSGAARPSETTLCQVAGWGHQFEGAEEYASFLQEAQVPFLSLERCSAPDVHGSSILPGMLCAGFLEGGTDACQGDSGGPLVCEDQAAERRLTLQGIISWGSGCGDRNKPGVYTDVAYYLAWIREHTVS
T1 sequence (P00748 20-372 partner limits assumed): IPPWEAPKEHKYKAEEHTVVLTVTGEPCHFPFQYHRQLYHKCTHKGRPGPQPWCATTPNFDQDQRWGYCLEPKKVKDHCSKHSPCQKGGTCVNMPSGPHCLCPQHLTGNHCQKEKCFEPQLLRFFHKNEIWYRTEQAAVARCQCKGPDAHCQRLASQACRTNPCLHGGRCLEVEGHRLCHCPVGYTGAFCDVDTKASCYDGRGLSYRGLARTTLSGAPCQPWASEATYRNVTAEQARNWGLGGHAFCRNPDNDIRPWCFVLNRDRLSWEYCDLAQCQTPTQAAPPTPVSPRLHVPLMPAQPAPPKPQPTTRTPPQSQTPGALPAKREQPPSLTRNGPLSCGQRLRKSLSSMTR
Procedure, shortened: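 FXIIa (10 nM) preincubated with compound 10 min at 37° C. in 50 mM Tris, 137 mM NaCl pH 7.4, 5% DMSO, top concentration 500 μM, then S-2302 added ([…]). Absorbance at 405 nm read kinetically for 3 h; IC50 from initial rates, converted to Ki by Cheng-Prusoff.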

thrombin = molecular target: T2, thrombin (Homo sapiens, UniProt P00734); assay: Determination of selectivity: thrombin inhibition, chromogenic substrate GPR assay; details: fold selectivity for FXIIa over thrombin
T2 construct: FXa (5 nM) and thrombin (5 nM)
Procedure, shortened: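 Thrombin (5 nM) preincubated with compound 10 min at 37 °C in 50 mM Tris, 137 mM NaCl, pH 7.4, 5% DMSO, then GPR substrate ([…]) added. Absorbance at 405 nm read kinetically for 3 h; IC50 from initial rates, converted to Ki via Ki=IC50/(1+[S]/Km).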

FXa = FXa (Homo sapiens, UniProt P00742); assay: Determination of selectivity: FXa inhibition, chromogenic substrate S2765 assay; details: fold selectivity for FXIIa over FXa
Procedure, shortened: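 Human FXa (5 nM) preincubated with compound (top 500 μM, 5% DMSO) 10 min at 37 °C in 50 mM Tris, 137 mM NaCl pH 7.4, then S2765 ([…]) added; A405 kinetics over 3 h at 37 °C. IC50 from initial rates, converted to Ki via Cheng-Prusoff.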

FXa, sequence (P00742 235-488 limits assumed): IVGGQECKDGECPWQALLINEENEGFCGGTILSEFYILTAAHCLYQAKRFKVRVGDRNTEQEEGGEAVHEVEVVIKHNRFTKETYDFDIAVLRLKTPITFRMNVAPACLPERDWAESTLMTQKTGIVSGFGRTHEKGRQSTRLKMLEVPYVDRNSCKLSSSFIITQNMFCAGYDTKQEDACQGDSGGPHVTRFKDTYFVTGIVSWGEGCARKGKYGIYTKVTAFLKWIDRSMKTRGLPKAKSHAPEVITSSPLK
FXa, sequence (P00742 41-179 partner limits assumed): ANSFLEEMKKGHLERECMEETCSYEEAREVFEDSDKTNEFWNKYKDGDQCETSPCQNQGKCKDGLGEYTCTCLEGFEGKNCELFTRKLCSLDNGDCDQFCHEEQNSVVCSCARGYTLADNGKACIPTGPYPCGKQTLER

Row | Ki (FXIIa) [nM] | Thrombin (human)/FXIIa alpha (human) (thrombin) | FXa (human)/FXIIa alpha (human) (FXa) | Structure (SMILES)
1 | 200 to 2000 | ++ (fold selectivity value of 10 to 100) | ∘∘∘ | COc1ccc(C[C@@H]2C[C@@H](C(=O)NCc3ccc4c(c3)nnn4C)N(C(=O)[C@H]3CC(c4ccccc4OC)CN3)C2)cc1 (stereo partly drawn) [Example M05378]
2 | > 2000 | ++ (fold selectivity value of 10 to 100) | ∘∘ | Cn1nnc2cc(CNC(=O)[C@@H]3C[C@H](N4CCN(Cc5ccccc5)CC4)CN3C(=O)[C@H](N)CCc3ccccc3)ccc21 [Example M05200, (2S,4S)-1-((R)-2-Amino-4-phenyl-butyryl)-4-(4-benzyl-piperazin-1-yl)-pyrrolidine-2-carboxylic acid (1-methyl-1H-benzotriazol-5-ylmethyl)-amide]
3 | > 2000 | ++ (fold selectivity value of 10 to 100) | ∘∘ | Cn1nnc2cc(CNC(=O)[C@@H]3C[C@H](CC4CCOCC4)CN3C(=O)[C@H](N)CCC(=O)N3CCCC3)ccc21 [Example M05293]
4 | > 2000 | ++ (fold selectivity value of 10 to 100) | ∘∘ | Cn1nnc2cc(CNC(=O)[C@@H]3C[C@H](NC(=O)Cc4ccccc4)CN3C(=O)[C@H](N)CCc3ccccc3)ccc21 [Example M05216]
5 | > 2000 | + (fold selectivity values less than 10) | ∘∘ | Cc1ccc(CC[C@@H](N)C(=O)N2CCC[C@H]2C(=O)NCc2ccc(CN)cc2)cc1 [Example M00787]
6 | 200 to 2000 | ++ (fold selectivity value of 10 to 100) | ∘∘∘ | NCc1ccc(CNC(=O)[C@@H]2C[C@@H](Cc3ccc(Cl)cc3)CN2C(=O)[C@H](N)CCc2ccccc2)cc1 [Example M05117]
7 | > 2000 | ++ (fold selectivity value of 10 to 100) | ∘∘ | Cn1nnc2cc(CNC(=O)[C@@H]3C[C@@H](Cc4ccncc4)CN3C(=O)[C@@H](CCC(=O)N3CCCC3)NC(=O)Cc3ccccc3)ccc21 [Example M05267, (2S,4R)-1-((R)-5-Oxo-2-phenylacetylamino-5-pyrrolidin-1-yl-pentanoyl)-4-pyridin-4-ylmethyl-pyrrolidine-2-carboxylic acid (1-methyl-1H-benzotriazol-5-ylmethyl)-amide]
8 | > 2000 | ++ (fold selectivity value of 10 to 100) | ∘∘ | Cn1nnc2cc(CNC(=O)[C@@H]3C[C@H](NC(=O)CCc4ccccc4)CN3C(=O)[C@H](N)CCc3ccccc3)ccc21 [Example M05195]
9 | > 2000 | ++ (fold selectivity value of 10 to 100) | ∘∘ | COc1ccc(C[C@@H]2C[C@@H](C(=O)NCc3ccc4c(c3)nnn4C)N(C(=O)[C@H]3C[C@@H](c4ccccc4)CCN3)C2)cc1 [Example M05374]
10 | 200 to 2000 | + (fold selectivity values less than 10) | ∘∘∘ | NCc1ccc(CNC(=O)[C@@H]2C[C@@H](Cc3ccncc3)CN2C(=O)[C@H](N)CCc2ccccc2)cc1 [Example M05156]
11 | > 2000 | ++ (fold selectivity value of 10 to 100) | ∘∘ | Cn1nnc2cc(CNC(=O)[C@@H]3C[C@H](NCc4ccc(Cl)cc4)CN3C(=O)[C@H](N)CCc3ccccc3)ccc21 [Example M05160]
12 | > 2000 | + (fold selectivity values less than 10) | ∘∘ | COc1cc(CNC(=O)[C@@H]2CCCN2C(=O)[C@H](N)CCc2ccccc2)cnc1CN [Example M05053]
13 | > 2000 | ++ (fold selectivity value of 10 to 100) | ∘∘ | Cn1nnc2cc(CNC(=O)[C@@H]3C[C@H](NC(=O)CCCc4ccccc4)CN3C(=O)[C@H](N)CCc3ccccc3)ccc21 [Example M05196]
14 | > 2000 | ++ (fold selectivity value of 10 to 100) | ∘∘ | COc1ccc2c(c1)CCNC2C(=O)N1C[C@H](Cc2ccncc2)C[C@H]1C(=O)NCc1ccc2c(c1)nnn2C (stereo partly drawn) [Example M05463]

Row | Structure (SMILES) | Ki (FXIIa) [nM] | Thrombin (human)/FXIIa alpha (human) (thrombin) | FXa (human)/FXIIa alpha (human) (FXa)
15 | COc1ccc(C[C@@H]2C[C@@H](C(=O)NCc3ccc4c(c3)nnn4C)N(C(=O)[C@H]3CC(c4ccccc4F)CN3)C2)cc1 (stereo partly drawn) [Example M05377] | 200 to 2000 | +++ (fold selectivity values greater than 100) | ∘∘∘
16 | Cn1nnc2cc(CNC(=O)[C@@H]3C[C@@H](Cc4ccc(S(C)(=O)=O)cc4)CN3C(=O)[C@H](N)CCC(=O)N3CCCC3)ccc21 [Example M05384] | 200 to 2000 | +++ (fold selectivity values greater than 100) | ∘∘∘
17 | Cn1ncc2cc(CNC(=O)[C@@H]3C[C@@H](Cc4ccncc4)CN3C(=O)[C@H](N)CCC(=O)N3CCCC3)ccc21 [Example M05244] | < 200 | +++ (fold selectivity values greater than 100) | ∘∘∘
18 | COc1cccc(CC2C[C@@H](C(=O)NCc3ccc4c(c3)nnn4C)N(C(=O)[C@H](N)CCC(=O)N3CCCC3)C2)c1 (stereo partly drawn) [Example M05300] | 200 to 2000 | +++ (fold selectivity values greater than 100) | ∘∘∘
19 | Cn1nnc2cc(CNC(=O)[C@@H]3CC(Cc4cccc(C#N)c4)CN3C(=O)[C@H](N)CCC(=O)N3CCCC3)ccc21 (stereo partly drawn) [Example M05319] | 200 to 2000 | +++ (fold selectivity values greater than 100) | ∘∘∘
20 | Cn1nnc2cc(CNC(=O)[C@@H]3C[C@@H](Cc4cccc5c4CCO5)CN3C(=O)[C@H](N)CCC(=O)N3CCCC3)ccc21 [Example M05380] | 200 to 2000 | +++ (fold selectivity values greater than 100) | ∘∘∘
21 | COc1ccc(C[C@@H]2C[C@@H](C(=O)NCc3ccc4c(c3)nnn4C)N(C(=O)[C@H]3C[C@@H](n4ccccc4=O)CN3)C2)cc1 [Example M00958] | 200 to 2000 | +++ (fold selectivity values greater than 100) | ∘∘∘
22 | Cn1nnc2cc(CNC(=O)[C@@H]3CC(Cc4ccc(OC(F)(F)F)cc4)CN3C(=O)[C@H](N)CCC(=O)N3CCCC3)ccc21 (stereo partly drawn) [Example M05306, (S)-1-((R)-2-Amino-5-oxo-5-pyrrolidin-1-yl-pentanoyl)-4-(4-trifluoromethoxy-benzyl)-pyrrolidine-2-carboxylicacid (1-methyl-1H-benzotriazol-5-ylmethyl)-amide] | < 200 | +++ (fold selectivity values greater than 100) | ∘∘∘
23 | COc1ccc(C[C@@H]2C[C@@H](C(=O)NCc3ccc4c(c3)nnn4C)N(C(=O)[C@H]3C[C@@H](c4ccccc4)CN3)C2)cc1F [Example M05352] | 200 to 2000 | +++ (fold selectivity values greater than 100) | ∘∘∘
24 | Cn1nnc2cc(CNC(=O)[C@@H]3C[C@@H](Cc4cccc(Cl)c4)CN3C(=O)[C@H](N)CCC(=O)N3CCCC3)ccc21 [Example M05190] | < 200 | +++ (fold selectivity values greater than 100) | ∘∘∘
25 | COc1ccc(C[C@@H]2C[C@@H](C(=O)NCc3cc4ccncc4o3)N(C(=O)[C@H](N)CCC(=O)N3CCCC3)C2)cc1 [Example M05465] | 200 to 2000 | +++ (fold selectivity values greater than 100) | ∘∘∘
26 | COc1ccc(C[C@@H]2C[C@@H](C(=O)NCc3cc4cnccc4[nH]3)N(C(=O)C3NCCc4cc(OC)ccc43)C2)cc1 (single isomer, unassigned) [Example M00963] | < 200 | +++ (fold selectivity values greater than 100) | ∘∘∘
27 | COc1ccc(C[C@@H]2C[C@@H](C(=O)NCc3ccc4c(c3)nnn4C)N(C(=O)[C@H](N)CCC(=O)N3CCCC3(C)C)C2)cc1 [Example M05450] | < 200 | +++ (fold selectivity values greater than 100) | ∘∘∘

— US12336991B2, “Factor XIIA inhibitors” (UNIVERSITY OF LEEDS, priority 2018, dated 2025)
